Two substances from EP3856749B1, “WATER-SOLUBLE, NON-AGGREGATED SILICON PHTALGCYANINE COMPOUND HAVING IN VITRO ANTICANCER EFFECT AGAINST CANCER TYPES OF LUNG, LIVER, BREST AND MELANOMA” (Karadeniz Teknik Universitesi, priority 2018, dated 2020) can be followed below.

Series [1] relates to lung (A549) cancer cell lines. Kind of series: Cytotoxicity test (MTT), A549. Conditions: A549, 48 hours. The format is cell-based, human. From the text: Cytotoxic effects of test substances are testes by means of using human breast (BT-20), melanoma (SK-Mel 128), prostate (DU-145), liver (SNU-398) and lung (A549) cancer cell lines. Toxic effects of test substances on the healthy normal cells are studied on human fibroblast cells (HFC).
Cell suspension prepared from alpha-MEM having 10% FBS (Fetal Bovine Serum), fungizone and penicillin/streptomycin is distributed as 5×10^3 of cell in each well in the cell culture containers comprising 96 wells for the test. […] Cells are kept in a humid environment at 5% of CO2 at 37°C for 48 hours in the presence of the test substance, of which final densities are of 200-0.09 µg/mL. 10 µL from the MTT solution (3-[4,5-dimethyltioazol-2,5-diphenyltetrazolium bromide) prepared at a density of 5 mg/mL is added to each well so as to determine the cell generation rate at the end of incubation period. After culture containers are kept in the humid environment at 5% of CO2 at 37°C for 2 hours, the content is emptied and dimethyl sulphoxide (DMSO) is added in the value of 100 µL/well on cells so as to solubilize intracellular formazan crystals. After incubation for 30 minutes, the color intensity is measured in the wave length of 570/620 by means of ELISA Microplate Reader (Tecan, Sunrise).

Series [2] deals with supercoiled pBR322 plasmid DNA. Kind of series: Hydrolytic nuclease activity (agarose gel electrophoresis). Conditions: 7a 6.25-50 µM; 3a 12.5-100 µM; without light. The format is biochemical. The text has this:
Cleavage activities of supercoiled pBR322 plasmid DNA of the compounds are observed by means of using agarose-gel electrophoresis. When the supercoiled is exposed to pBR322 plasmid DNA electrophoresis, it is observed that the supercoiled form (Form I) migrates in the swiftest manner. In case of a cut occurred on a single chain, the supercoiled form creates a nicked form (Form II) moving in the slowest manner. In case both chains are cut, the linear form (Form III) migrating between Form I and Form II.
Total volume of reaction mixture contained 50 mM Tris-HCl (pH 7.0), supercoiled pBR322 plasmid DNA (250 ng), and different concentrations of compound. While the well content is loaded to 0.8 percent of agarose gel (comprising 0.25 µg/mL EB), gel loading dye also added and loaded to the gel. After addition of running buffer, it is exposed to electrophoresis by applying a current of 100 volt for 90 minutes.

For series [3], the target named is T1, topoisomerase I enzyme (Homo sapiens, UniProt P11387).
T1 sequence (P11387 1-765): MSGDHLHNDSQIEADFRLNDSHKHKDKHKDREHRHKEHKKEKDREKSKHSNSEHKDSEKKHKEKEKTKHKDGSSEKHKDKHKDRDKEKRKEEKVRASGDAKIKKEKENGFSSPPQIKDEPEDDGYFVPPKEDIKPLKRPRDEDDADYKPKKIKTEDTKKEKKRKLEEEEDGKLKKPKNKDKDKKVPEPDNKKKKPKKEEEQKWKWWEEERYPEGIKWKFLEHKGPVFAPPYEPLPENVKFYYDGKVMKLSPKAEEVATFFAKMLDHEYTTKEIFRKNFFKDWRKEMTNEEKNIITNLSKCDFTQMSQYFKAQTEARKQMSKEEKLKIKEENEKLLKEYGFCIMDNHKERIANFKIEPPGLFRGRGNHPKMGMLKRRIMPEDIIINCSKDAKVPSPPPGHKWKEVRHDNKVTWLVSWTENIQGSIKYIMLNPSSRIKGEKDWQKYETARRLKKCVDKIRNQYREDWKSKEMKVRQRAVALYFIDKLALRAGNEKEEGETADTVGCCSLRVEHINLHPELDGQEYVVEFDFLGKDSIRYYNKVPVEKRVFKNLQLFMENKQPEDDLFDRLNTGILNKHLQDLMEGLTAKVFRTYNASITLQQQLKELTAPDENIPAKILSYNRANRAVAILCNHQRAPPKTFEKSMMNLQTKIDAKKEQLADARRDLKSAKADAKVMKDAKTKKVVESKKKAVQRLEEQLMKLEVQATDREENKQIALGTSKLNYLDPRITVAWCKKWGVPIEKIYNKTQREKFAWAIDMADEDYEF
Kind of series: Topoisomerase I inhibition (relaxation method). The format is biochemical. The note with it: 1 U Topo I, pBR322 plasmid DNA; 7a 12.5-37.5 µM; 3a 12.5-25 µM. The method, then: After incubation process, samples are loaded to 0.8 % of agarose gel, exposed to electrophoresis in the running buffer by applying 40 volt of current for 3 hours and forms obtained are observed on the agarose gel under UV light.

The subject of series [4] is pBR322 plasmid DNA. Kind of series: Determination of reactive oxygen types in photonuclease activity. The format is biochemical. The note with it: 3a (50 µM), stimulation with light. How it is done:
Inhibition tests are performed in the presence of standard radical scavengers so as to determine active oxygen types effective on its cleavage in the presence of light on pBR322 plasmid DNA of complexes. For that purpose, it used ethanol (EtOH), methanol (MeOH) and dimethyl sulphoxide (DMSO) as hydroxyl radical scavenger; sodium azide and L-histidine as singlet oxygen scavenger; SOD as superoxide radical scavenger, EDTA as chelating agent and catalase as hydrogen peroxide adsorbent. It is also observed whether or not results obtained by using different types scavenging the same type of radicals support each other. Different reaction mixtures are formed by means of adding pBR322 plasmid DNA and complex in the efficient concentration and any one of above mentioned standard radical scavengers in variable concentrations into 50 mM Tris-HCl buffer. Subsequent to incubation of different reaction mixture formed at 37°C for an hour, it comprises the process of examining and monitoring these products. […]

In series [1], “bis(3,5-bis{3-[3-(diethylmethylamino)phenoxy]propoxy}phenyl)methoxy)phthalocyaninato silicon (IV) Iodide [7a]” had a CC50 of 1.18 µM. Moreover, the hydrolytic nuclease activity result in series [2] is reported as “observed for the compound 7a depending on the concentration”. For the same substance, in series [3], the “topoisomerase I inhibition effect” value is listed as “supercoiled form rate increases”.

The substance “bis(3,5-bis{3-[3-trimethylamino)phenoxy]propoxy}phenyl)methoxy)phthalocyaninato silicon (IV) Iodide [3a]” registered a CC50 in series [1] of 2.24 µM. In addition, the hydrolytic nuclease activity entry in series [2] is reported as “observed for the compound 3a depending on the concentration”. In series [4], the “effect of singlet oxygen scavengers NaN3 and L-Histidine on cleavage” value is given as “prevent the cleavage”. Further, the “topoisomerase I inhibition effect” value in series [3] is “supercoiled form rate increases”.
